Here are results for one compound from ChEMBL document CHEMBL3044945, “Synthesis of 1,3,5-trisubstituted pyrazoline nucleus containing compounds and screening for antimicrobial activity” (2012).

One experiment concerns Aspergillus niger. Kind of experiment: Antifungal activity against Aspergillus niger MTCC 2546 at 10 ug/ml after 48 hr by cup-plate method. The class given is functional. Conditions: MTCC 2546, 48 h, read-out: DIZ.
Another experiment deals with Penicillium chrysogenum. Description: Antifungal activity against Penicillium chrysogenum MTCC 161 at 10 ug/ml after 48 hr by cup-plate method. Format: functional. To be noted: MTCC 161, 48 h, read-out: DIZ.

Structures are written as SMILES.

Consider `OC(Cn1cncn1)(Cn1cncn1)c1ccc(F)cc1F` [FLUCONAZOLE], for which the zone of inhibition at 10 µg/mL in the experiment with Aspergillus niger worked out at 24 mm; in the experiment on Penicillium chrysogenum it was 25 mm.
